The text below walks through data of patent US20090068161A1, “USE OF A COMBINATION OF HESPERIDIN AND OF A MICROORGANISM FOR INFLUENCING THE BARRIER FUNCTION OF THE SKIN” (L'OREAL, priority 2007, published 2009).

This assay deals with Episkin® model (reconstituted skin). In words: Barrier function of reconstituted skin (Episkin® model): penetration of a nonpenetrating reference compound (cationic anthraquinone). In kind it is cell-based. The settings on record: condition E: Episkin® treated from D6 to D13 with 10 μM Hes7Glu; dye 1 mM applied for 4 hours. An excerpt: The conversion of a nutritional agent (hereinafter known as probiotic conditioned medium) after ingestion is first of all stimulated, for the purpose of resulting use directly on a skin model (stage A).
The medium of the cocultures stimulated with Lactobacillus paracasei, resulting from the basolateral compartment, is subsequently withdrawn and its effects, in combination with the most important metabolite of hesperidin, hesperitin-7 glucuronide (Hes7Glu), on the barrier function in the Episkin® model are subsequently tested in vitro (stage B).
A—Preparation of the Probiotic Conditioned Medium
An intestinal barrier model (comprising human enterocyte lines (Caco-2) co-cultured with human leukocytes in a “transwell” cell co-culture system [Haller D, 2000]) has been developed. […]
The receiving liquid (RL) is collected and then assayed directly at the end of application by HPLC. Each point is analysed in duplicate. […]
The concentration is determined using a calibration range produced on the same day. The degrees of penetration are calculated from the ratio of the amount in the RL to the amount applied, the following results having in addition formed the subject of a statistical study using the Wilcoxon tests.

Each structure is given as a SMILES string.

With `COc1ccc([C@@H]2CC(=O)c3c(O)cc(O[C@@H]4O[C@H](C(=O)O)[C@@H](O)[C@H](O)[C@H]4O)cc3O2)cc1O` [Hes7Glu, hesperitin-7 glucuronide], the “effect on the barrier function (degree of penetration of the cationic anthraquinone)” value was “no significant effect”.
